Test results taken from patent publication US12702715B2, “Targeted RNA degradation allows precision repurposing of protein-targeted small molecule medicines to RNA” (University of Florida Research Foundation, Incorporated, priority 2020, dated 2026).
Entries after “also recorded” stand apart in the source; their conditions may differ.

Legend:
[1] = molecular target: pre-miR-21's A-bulge (Dicer processing site in pre-miR-21); experiment: Fluorescent binding affinity measurement, A-bulge RNA; design: species or system human
Experimental: Fluorescent Binding Affinity Measurements. Binding assays were completed as previously described^5. Briefly, the RNA of interest was folded as described in the “Solution-based Dye Displacement Assay” section, including the addition of BSA. Then, 1 was added to the RNA solution to a final concentration of 0.5 μM. The solution was serial diluted with 1× AB2 containing 0.5 μM of 1. The solutions were incubated at room temperature in the dark for 30 min. The solutions were then transferred to a black 384-well plate. Fluorescence intensity was measured using a Tecan plate reader (Gain: 100, Integration time: 40 μs) with excitation wavelength of and emission wavelength of 355 nm and 535 nm, respectively. The change in fluorescence was normalized to samples lacking RNA. Binding affinity was calculated by using Equation 2, as previously described^5. I=I0+0.5Δε{([FL]0+[RNA]0+Kd)−(([FL]0+[RNA]0+Kd)^2−4[FL]0[RNA]0)^0.5} (2) where I and I0 are the measured fluorescence intensity of compound with or without RNA, respectively, Δε is the difference between the fluorescence intensity with infinite concentration of RNA or without RNA, [FL]0 and [RNA]0 are the concentrations of small molecule and RNA, respectively, and Kd is the dissociation constant.

RNase L = RNase L (Homo sapiens, UniProt Q05823); experiment: In vitro RNase L oligomerization; type: biochemical
RNase L, sequence (Q05823 whole entry, species assumed): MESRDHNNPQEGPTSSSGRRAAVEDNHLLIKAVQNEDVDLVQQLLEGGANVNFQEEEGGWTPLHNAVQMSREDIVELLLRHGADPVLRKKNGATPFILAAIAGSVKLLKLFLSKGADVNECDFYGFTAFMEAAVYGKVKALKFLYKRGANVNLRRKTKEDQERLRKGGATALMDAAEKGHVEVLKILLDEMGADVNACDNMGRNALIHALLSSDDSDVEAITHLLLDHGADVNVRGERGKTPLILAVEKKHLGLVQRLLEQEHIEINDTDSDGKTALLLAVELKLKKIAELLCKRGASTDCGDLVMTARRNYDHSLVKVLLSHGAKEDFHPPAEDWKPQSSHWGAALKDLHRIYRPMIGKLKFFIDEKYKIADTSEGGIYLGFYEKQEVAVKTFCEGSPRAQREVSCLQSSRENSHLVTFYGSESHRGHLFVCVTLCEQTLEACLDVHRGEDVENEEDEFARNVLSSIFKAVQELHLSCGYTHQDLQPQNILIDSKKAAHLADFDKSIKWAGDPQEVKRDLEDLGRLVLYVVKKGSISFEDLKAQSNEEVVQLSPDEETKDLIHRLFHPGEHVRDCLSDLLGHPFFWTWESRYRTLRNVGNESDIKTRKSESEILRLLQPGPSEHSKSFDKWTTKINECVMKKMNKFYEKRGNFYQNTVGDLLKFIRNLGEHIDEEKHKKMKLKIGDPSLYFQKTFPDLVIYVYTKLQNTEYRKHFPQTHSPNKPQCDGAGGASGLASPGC
Experimental: In Vitro RNase L Oligomerization. To a solution of RNase L (3 μM) in 1× RNase L Buffer (add components) was added MgCl2, fresh β-mercaptoethanol, and ATP to final concentrations of 10 mM, 7 mM, and 50 μM respectively. The oligomerization of RNase L induced by small molecules was assessed as previously reported^6. The monomeric and oligomeric RNase L protein was resolved by Western blot and detected using an RNase L primary antibody (1:6000 dilution; Cell Signaling Technology, D4B4J). The blot was incubated with the antibody in 1×TBST (Tris-buffered saline supplemented with 0.1% (v/v) Tween-20) and 5% (w/v) nonfat dry milk at 4° C. overnight. After washing, the blot was incubated with 1:12000 anti-rabbit IgG, HRP-linked Antibody (Cell Signaling Technology, 7074S) in 1×TBST with 5% (w/v) nonfat dry milk for 1 h at room temperature. After washing with 1×TBST for 10 min three times, monomeric and oligomerized RNase L protein was detected by using SuperSignal West Pico Chemiluminescent Substrate (Pierce Biotechnology). ImageJ software was used for quantification.

pre-miR-21 mutant = experiment: In vitro Chem-CLIP, pre-miR-21 mutant; type: binding; details: 1, 5, 20 or 100 μM
Experimental: In Vitro Chemical Cross-linking and Isolation by Pull Down (Chem-CLIP) and Competitive Chem-CLIP (C-Chem-CLIP). Growth medium [RMPI 1640 medium with L-glutamine & 25 mM HEPES (Corning)] was inactivated by heating at 95° C. to for 15 min and slowly cooling to room temperature at benchtop. Pre-miR-21 labeled with ^32P at the 5′-end (~10,000 counts) was folded in growth medium by heating at 95° C. for 1 min and slowly cooling to room temperature. To the samples was added Chem-CLIP probe 4 (1, 5, 20 or 100 μM) or negative control probe 5 (1, 5, 20 or 100 μM), and the mixtures were incubated at 37° C. for 1 h. The samples were then cross-linked by irradiation with 365 nm light for 10 min. The Chem-CLIP probe 4 or control probe 5, whether or not cross-linked to the RNA, was then clicked to disulfide biotin azide (10 mM in DMSO; 10 μL per sample; 1168-10, Click Chemistry Tools) by incubating in a solution containing 1×HEPES buffer (25 mM, pH 7), sodium ascorbate (10 μL/sample, 250 mM in H2O), CuSO4 (10 μL/sample, 50 mM in H2O), THPTA (10 μL/sample, 50 mM in H2O) for 2 h at 37° C. […] The radioactive signal from bound RNAs (on the beads) and unbound RNAs (from the wash steps) were measured by using a Beckman Coulter LS6500 Liquid Scintillation Counter. Enrichment of pre-miR-21 was calculated as previously described^6. […]

## CN1CCN(c2ccc3nc(-c4c(N)c5c(F)cccc5[nH]c4=O)[nH]c3c2)CC1 [Compound 1, Dovitinib, reference compound]
[1]
  Kd: 3 µM

## CCOC(=O)C1=C(Nc2ccccc2)S/C(=C\c2ccc(OCCOCCOCCOCCNC(=O)NCCN3CCN(c4ccc5[nH]c(-c6c(N)c7c(F)cccc7[nH]c6=O)nc5c4)CC3)c(O)c2)C1=O [Compound 2, Ribotac-Dovitinib]
RNase L
  RNase L oligomerization / dimerization: recruits and dimerizes; also recorded: oligomerized RNase L in a dose dependent manner

## C#CCCC1(CCC(=O)NCCN2CCN(c3ccc4[nH]c(-c5c(N)c6c(F)cccc6[nH]c5=O)nc4c3)CC2)N=N1 [Compound 4]
pre-miR-21 mutant
  enrichment of 32P-labeled pre-miR-21 mutant: not mutant
